Measurements from PubChem BioAssay AID1963424 (Molecular Pharmacology Branch, DTP, NCI, 2024).
“And” between values parts separate entries of the source, which are not always exact repeats. Equal values may be shown once.

System: 327498-153-R-J2-PDC complex spheroid growth, % test/control
Assay: Anticancer human tumor 327498-153-R-J2-PDC patient-derived uterine carcinosarcoma cell line growth inhibition [Asc]
Conditions: for viability, T/C: stronger effect = lower value
Method in brief: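 Tumor cells were grown as multicellular spheroids with stromal HUVEC and mesenchymal stem cells and treated singly or in combination. Concentrations fell in half-log steps from the clinical Cmax, or from 10 microM where none was known.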

[1] = curve of first compound, second compound 0.1 µM
[2] = curve of first compound, second compound 0.316 µM
[3] = curve of first compound, second compound 1 µM
[4] = curve of first compound, second compound 3.16 µM
[5] = curve of first compound, second compound 10 µM
[6] = second compound 0.1 µM, first compound 0.0316 µM
[7] = second compound 0.1 µM, first compound 0.1 µM
[8] = second compound 0.1 µM, first compound 0.316 µM
[9] = second compound 0.1 µM, first compound 1 µM
[10] = second compound 0.1 µM, first compound 3.16 µM
[11] = second compound 0.1 µM, first compound 10 µM
[12] = second compound 0.316 µM, first compound 0.0316 µM
[13] = second compound 0.316 µM, first compound 0.1 µM
[14] = second compound 0.316 µM, first compound 0.316 µM
[15] = second compound 0.316 µM, first compound 1 µM
[16] = second compound 0.316 µM, first compound 3.16 µM
[17] = second compound 0.316 µM, first compound 10 µM
[18] = second compound 1 µM, first compound 0.0316 µM
[19] = second compound 1 µM, first compound 0.1 µM
[20] = second compound 1 µM, first compound 0.316 µM
[21] = second compound 1 µM, first compound 1 µM
[22] = second compound 1 µM, first compound 3.16 µM
[23] = second compound 1 µM, first compound 10 µM
[24] = second compound 3.16 µM, first compound 0.0316 µM
[25] = second compound 3.16 µM, first compound 0.1 µM
[26] = second compound 3.16 µM, first compound 0.316 µM
[27] = second compound 3.16 µM, first compound 1 µM
[28] = second compound 3.16 µM, first compound 3.16 µM
[29] = second compound 3.16 µM, first compound 10 µM
[30] = second compound 10 µM, first compound 0.0316 µM
[31] = second compound 10 µM, first compound 0.1 µM
[32] = second compound 10 µM, first compound 0.316 µM
[33] = second compound 10 µM, first compound 1 µM
[34] = second compound 10 µM, first compound 3.16 µM
[35] = second compound 10 µM, first compound 10 µM
[36] = second compound 0.1 µM, first compound 0.00316 µM
[37] = second compound 0.1 µM, first compound 0.01 µM
[38] = second compound 0.316 µM, first compound 0.00316 µM
[39] = second compound 0.316 µM, first compound 0.01 µM
[40] = second compound 1 µM, first compound 0.00316 µM
[41] = second compound 1 µM, first compound 0.01 µM
[42] = second compound 3.16 µM, first compound 0.00316 µM
[43] = second compound 3.16 µM, first compound 0.01 µM
[44] = second compound 10 µM, first compound 0.00316 µM
[45] = second compound 10 µM, first compound 0.01 µM
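Further: spheroids exposed to compound for 7 days after 3 days of growth.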
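Wherever viability, T/C is given: 100% = DMSO vehicle control wells.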

Compound `C=C(F)C(=O)N1CCN(c2nc(OCC3CCCN3C)nc3c2CCN(c2cccc4cccc(Cl)c24)C3)CC1CC#N` (configuration not stated) + Cc1c(S(C)(=O)=O)c(-c2cc(F)cc(N3CCN(c4ccc(NS(=O)(=O)c5ccc(NC(CCN6CCC(C(=O)OCCCP(=O)(O)O)CC6)CSc6ccccc6)c(S(=O)(=O)C(F)(F)F)c5)cc4)CC3)c2)c(-c2ccc(Cl)cc2)n1C(C)C has an IC50 [1] of 756 nM, an IC50 [2] of 633 nM and an IC50 [3] of 546 nM. It also gave an IC50 [4] of 512 nM, an IC50 [5] of 1590 nM and a viability, T/C [6] of 63%. It also gave a viability, T/C [7] of 57.9%, a viability, T/C [8] of 62.2% and a viability, T/C [9] of 46.4%. It also gave a viability, T/C [10] of 5.7%, a viability, T/C [11] of 0.14% and a viability, T/C [12] of 66.6%. For the same compound, the viability, T/C [13] was 63.4%, the viability, T/C [14] was 56% and the viability, T/C [15] was 43.6%. For the same compound, the viability, T/C [16] was 3.41%, the viability, T/C [17] was 0.12% and the viability, T/C [18] was 63.9%. For the same compound, the viability, T/C [19] was 58.5%, the viability, T/C [20] was 55.9% and the viability, T/C [21] was 40.8%. For the same compound, the viability, T/C [22] was 3.33%, the viability, T/C [23] was 0.11% and the viability, T/C [24] was 68.1%. For the same compound, the viability, T/C [25] was 60.1%, the viability, T/C [26] was 50.7% and the viability, T/C [27] was 41.3%. It also gave a viability, T/C [28] of 2.02%, a viability, T/C [29] of 0.12% and a viability, T/C [30] of 164%. For the same compound, the viability, T/C [31] was 150%, the viability, T/C [32] was 130% and the viability, T/C [33] was 82%. It also gave a viability, T/C [34] of 3.02% and a viability, T/C [35] of 0.19%.

Compound `C=CC(=O)N1CCN(c2nc(=O)n(-c3c(C)ccnc3C(C)C)c3nc(-c4c(O)cccc4F)c(F)cc23)C(C)C1` (configuration not stated) + Cc1c(S(C)(=O)=O)c(-c2cc(F)cc(N3CCN(c4ccc(NS(=O)(=O)c5ccc(NC(CCN6CCC(C(=O)OCCCP(=O)(O)O)CC6)CSc6ccccc6)c(S(=O)(=O)C(F)(F)F)c5)cc4)CC3)c2)c(-c2ccc(Cl)cc2)n1C(C)C has an IC50 [1] greater than 10000 nM, an IC50 [2] greater than 10000 nM and an IC50 [3] greater than 10000 nM. The IC50 [4] was greater than 10000 nM, the IC50 [5] was greater than 10000 nM and the viability, T/C [6] was 78.9%. The viability, T/C [7] was 68.5%, the viability, T/C [8] was 66.7% and the viability, T/C [9] was 69.5%. It also gave a viability, T/C [10] of 63.4%, a viability, T/C [11] of 64.8% and a viability, T/C [12] of 73.5%. The viability, T/C [13] was 71.6%, the viability, T/C [14] was 62.4% and the viability, T/C [15] was 63.2%. The viability, T/C [16] was 60.2%, the viability, T/C [17] was 56.4% and the viability, T/C [18] was 83.2%. The viability, T/C [19] was 71.9%, the viability, T/C [20] was 60.7% and the viability, T/C [21] was 71.2%. The viability, T/C [22] was 62.1%, the viability, T/C [23] was 64.7% and the viability, T/C [24] was 84.6%. The viability, T/C [25] was 72.4%, the viability, T/C [26] was 62.4% and the viability, T/C [27] was 67.4%. The viability, T/C [28] was 65.4%, the viability, T/C [29] was 48.3% and the viability, T/C [30] was 179%. It also gave a viability, T/C [31] of 164%, a viability, T/C [32] of 164% and a viability, T/C [33] of 136%. The viability, T/C [34] was 167% and the viability, T/C [35] was 151%.

With `NC1CCC(NC2CC2c2ccccc2)CC1` (configuration not stated) the viability, T/C (compound 0.000316 µM) was 101% and 116% and 107%, the viability, T/C (compound 0.001 µM) was 97.7% and 101% and 104% and the viability, T/C (compound 0.00316 µM) was 104% and 101% and 98.6%. The viability, T/C (compound 0.01 µM) was 96.9% and 103% and 106%, the viability, T/C (compound 0.0316 µM) was 96.4% and 105% and 96.6% and the viability, T/C (compound 0.1 µM) was 89.5% and 98.1% and 92.1%. It also gave an IC50 (curve of compound) greater than 100 nM.

`COc1c(OCCCN2CCOCC2)ccc2c3n(c(=NC(=O)c4cnc(N)nc4)nc12)CCN3` + Cc1c(S(C)(=O)=O)c(-c2cc(F)cc(N3CCN(c4ccc(NS(=O)(=O)c5ccc(NC(CCN6CCC(C(=O)OCCCP(=O)(O)O)CC6)CSc6ccccc6)c(S(=O)(=O)C(F)(F)F)c5)cc4)CC3)c2)c(-c2ccc(Cl)cc2)n1C(C)C gave an IC50 [1] of 104 nM, an IC50 [2] of 96.5 nM and an IC50 [3] of 79.2 nM. It also gave an IC50 [4] of 86.4 nM, an IC50 [5] of 168 nM and a viability, T/C [36] of 81.3%. For the same compound, the viability, T/C [37] was 91.2%, the viability, T/C [6] was 80.3% and the viability, T/C [7] was 46.8%. The viability, T/C [8] was 24.6%, the viability, T/C [9] was 5.06% and the viability, T/C [38] was 91.3%. For the same compound, the viability, T/C [39] was 84.4%, the viability, T/C [12] was 77.2% and the viability, T/C [13] was 48.7%. It also gave a viability, T/C [14] of 18.9%, a viability, T/C [15] of 4.02% and a viability, T/C [40] of 91.1%. The viability, T/C [41] was 83.6%, the viability, T/C [18] was 63.9% and the viability, T/C [19] was 48.7%. For the same compound, the viability, T/C [20] was 20.8%, the viability, T/C [21] was 3.26% and the viability, T/C [42] was 91.5%. It also gave a viability, T/C [43] of 79.2%, a viability, T/C [24] of 72.2% and a viability, T/C [25] of 48.9%. The viability, T/C [26] was 16.1%, the viability, T/C [27] was 2.71% and the viability, T/C [44] was 166%. It also gave a viability, T/C [45] of 169%, a viability, T/C [30] of 151% and a viability, T/C [31] of 73%. The viability, T/C [32] was 24% and the viability, T/C [33] was 4.08%.

`CCN1CCN(Cc2ccc(Nc3ncc(F)c(-c4cc(F)c5nc(C)n(C(C)C)c5c4)n3)nc2)CC1` + Cc1c(S(C)(=O)=O)c(-c2cc(F)cc(N3CCN(c4ccc(NS(=O)(=O)c5ccc(NC(CCN6CCC(C(=O)OCCCP(=O)(O)O)CC6)CSc6ccccc6)c(S(=O)(=O)C(F)(F)F)c5)cc4)CC3)c2)c(-c2ccc(Cl)cc2)n1C(C)C gave an IC50 [1] greater than 1000 nM, an IC50 [2] greater than 1000 nM and an IC50 [3] greater than 1000 nM. It also gave an IC50 [4] greater than 1000 nM, an IC50 [5] greater than 1000 nM and a viability, T/C [36] of 101%. For the same compound, the viability, T/C [37] was 94.9%, the viability, T/C [6] was 76.3% and the viability, T/C [7] was 64.1%. It also gave a viability, T/C [8] of 64.5%, a viability, T/C [9] of 67.8% and a viability, T/C [38] of 94.7%. The viability, T/C [39] was 95.2%, the viability, T/C [12] was 78.2% and the viability, T/C [13] was 63.9%. The viability, T/C [14] was 49.7%, the viability, T/C [15] was 55.8% and the viability, T/C [40] was 95.3%. For the same compound, the viability, T/C [41] was 93%, the viability, T/C [18] was 85.9% and the viability, T/C [19] was 65.7%. It also gave a viability, T/C [20] of 56.9%, a viability, T/C [21] of 57.2% and a viability, T/C [42] of 105%. For the same compound, the viability, T/C [43] was 94.7%, the viability, T/C [24] was 72.1% and the viability, T/C [25] was 55.8%. It also gave a viability, T/C [26] of 62.3%, a viability, T/C [27] of 49.5% and a viability, T/C [44] of 184%. For the same compound, the viability, T/C [45] was 172%, the viability, T/C [30] was 145% and the viability, T/C [31] was 105%. For the same compound, the viability, T/C [32] was 96% and the viability, T/C [33] was 79.4%.
